Columns and labels:
Plasmopara viticola = assay: Example I: in vivo preventive test on Plasmopara viticola (grapevine); conditions: 144 h, 10 ppm of active ingredient, preventive spray on young plants, evaluated 6 days after inoculation, read-out: Eff. %
Method: In Vivo Preventive Test on Plasmopara viticola (Grapevine)
To produce a suitable preparation of active compound, 1 part by weight of active compound is mixed with the stated amounts of solvent and emulsifier, and the concentrate is diluted with water to the desired concentration.
To test for preventive activity, young plants are sprayed with the preparation of active compound at the stated rate of application. After the spray coating has dried on, the plants are inoculated with an aqueous spore suspension of Plasmopara viticola and then remain for 1 day in an incubation cabinet at approximately 20° C. and a relative atmospheric humidity of 100%. The plant is subsequently placed for 4 days in a greenhouse at approximately 21° C. and a relative atmospheric humidity of approximately 90%. The plants are then misted and placed for 1 day in an incubation cabinet.
The test is evaluated 6 days after the inoculation. 0% means an efficacy which corresponds to that of the untreated control, while an efficacy of 100% means that no disease is observed.

Uromyces appendiculatus = assay: Example C: in vivo preventive test on Uromyces appendiculatus (bean rust); conditions: 500 ppm, preventive spray on bean plants, contamination after 24 hours, grading 11 days after contamination vs control plants
Method: In Vivo Preventive Test on Uromyces appendiculatus (Bean Rust)
(§1) The active ingredients tested are prepared by homogenization in a mixture of acetone/tween/DMSO, and then diluted with water to obtain the desired active material concentration.
Bean plants (“Saxa” variety), sown in starter cups on a 50/50 peat soil-pozzolana substrate and grown at 24° C., are treated at the 2-leaf stage (9 cm height) by spraying with the active ingredient prepared as described above. Plants, used as controls, are treated with the mixture of acetone/tween/DMSO/water not containing the active material.
(§2) After 24 hours, the plants are contaminated by spraying the leaves with an aqueous suspension of Uromyces appendiculatus spores (150 000 spores per ml). The spores are collected from infected plants and are suspended in water containing 2.5 ml/l of Tween 80 at 10%. The contaminated bean plants are incubated for 24 hours at 20° C. and at 100% relative humidity, and then for 10 days at 20° C. and at 70-80% relative humidity.
Grading (% of efficacy) is carried out 11 days after the contamination, in comparison with the control plants.
(§3) Under these conditions, good (at least 70%) or total protection is observed at a dose of 500 ppm with the following compounds: […]

[1] = pH 2.7, LogP, HPLC on reversed phase columns, pH 2.7, 0.1% formic acid in water / acetonitrile gradient
Phytophthora infestans = assay: whole plant or invertebrate; format: in vivo; conditions: in Solanum lycopersicum, 120 h, read-out: % efficacy
Puccinia recondita = assay: Example E: in vivo preventive test on Puccinia recondita (brown rust on wheat); conditions: 500 ppm, preventive spray on wheat plants, contamination after 24 hours, grading 12 days after contamination vs control plants
Method: In Vivo Preventive Test on Puccinia recondita (Brown Rust on Wheat)
as §1
Wheat plants (“Scipion” variety), sown in starter cups on a 50/50 peat soil-pozzolana substrate and grown at 22° C., are treated at the 1-leaf stage (10 cm height) by spraying with the active ingredient prepared as described above. Plants, used as controls, are treated with the mixture of acetone/tween/DMSO/water not containing the active material.
as §2, with “of Puccinia recondita” for “of Uromyces appendiculatus”, “spores (100” for “spores (150”, “from an” for “from”, “infected plant” for “infected plants”, “contaminated wheat” for “contaminated bean”
Grading (% of efficacy) is carried out 12 days after the contamination, in comparison with the control plants.
as §3

Pyrenophora teres = assay: Example D: in vivo preventive test on Pyrenophora teres (net blotch on barley); conditions: 500 ppm, preventive spray on barley plants, contamination after 24 hours, grading 14 days after contamination vs control plants
Method: In Vivo Preventive Test on Pyrenophora teres (Net Blotch on Barley)
as §1
Barley plants (“Plaisant” variety), sown in starter cups on a 50/50 peat soil-pozzolana substrate and grown at 22° C., are treated at the 1-leaf stage (10 cm height) by spraying with the active ingredient prepared as described above. Plants, used as controls, are treated with the mixture of acetone/tween/DMSO/water not containing the active material.
After 24 hours, the plants are contaminated by spraying the leaves with an aqueous suspension of Pyrenophora teres spores (12 000 spores per ml). The spores are collected from a 12-day-old culture. The contaminated barley plants are incubated for 48 hours at 20° C. and at 100% relative humidity, and then for 12 days at 20° C. at 70-80% relative humidity.
Grading (% of efficacy) is carried out 14 days after the contamination, in comparison with the control plants.
as §3

COc1ccc(CC(=O)Nc2cccc(CON=C(c3ccccc3)c3nc(=O)on3C)n2)cc1 [Example 16]
pest or weed control at 10 ppm (Plasmopara viticola): 94% | % efficacy (Uromyces appendiculatus): 81% | chromatographic logP [1]: 2.92 | pest or weed control at 500 ppm (Phytophthora infestans): 100% | % efficacy (Puccinia recondita): 89%

COc1cccc(C(=NOCc2cccc(NC(=O)COc3ccccc3)n2)c2nc(=O)o[nH]2)c1 [Example 45]
chromatographic logP [1]: 3.17 | pest or weed control at 500 ppm (Phytophthora infestans): 88% | % efficacy (Pyrenophora teres): 71%

Reference: patent US9556158B2, “Fungicidal 3-[(pyridin-2-ylmethoxyimino)(phenyl)methyl]-2-substituted-1,2,4-oxadiazol-5(2H)-one derivatives” (BAYER INTELLECTUAL PROPERTY GMBH, priority 2011, dated 2017)
